In patent US20130133650A1, “GAS-BASED TREATMENT FOR INFECTIVE DISEASE” (priority 2010, published 2013):

Tested on: M. tuberculosis H37Rv

Molecule | effect on viability / lethality (words, FIG. 1)
Carbon dioxide | only a slight lethal effect
[HH] [hydrogen] | as effective as Bioblend
